system: HCV 1b-377-neo replicon cells; test: HCV replicon assay, HCV 1b-377-neo replicon cells (1b FRET); format: cell-based, Hepatitis C virus genotype 1b; details: HCV 1b-377-neo replicon cells; HCV 1b genotype; read-out: EC50 range against HCV 1b (Table 2, Range)
How it was run: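 FRET-based replicon assay in HCV 1b-377-neo cells, including a comparison line carrying the NS5A Y2065H mutation that confers resistance to a reference compound.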

SMILES	EC50 [nM]
COC(=O)N[C@@H](CCN1CCOCC1)C(=O)N1CCC[C@H]1c1ncc(-c2ccc(-c3ccc(-c4cnc([C@@H]5CCCN5C(=O)[C@@H](NC(=O)OC)C(C)C)[nH]4)cc3)cc2)[nH]1 [Example M68]	100 to 999

same assay, conditions: Hepatitis C virus, HCV 1b-377-neo replicon cells; HCV 1b genotype; read-out: EC50 range against HCV 1b (Table 2, Range)

SMILES	EC50 [nM]
COC(=O)N[C@@H](C(=O)N1CCC[C@H]1c1ncc(-c2ccc(-c3ccc(-c4cnc([C@@H]5CCCN5C(=O)c5cscn5)[nH]4)cc3)cc2)[nH]1)c1ccccc1 [Example 84-44, methyl ((1R)-2-oxo-1-phenyl-2-((2S)-2-(5-(4′-(2-((2S)-1-(1,3-thiazol-4-ylcarbonyl)-2-pyrrolidinyl)-1H-imidazol-5-yl)-4-biphenylyl)-1H-imidazol-2-yl)-1-pyrrolidinyl)ethyl)carbamate]	0.001 to 0.999
COC(=O)N[C@@H](C(=O)N1CCC[C@H]1c1ncc(-c2ccc(-c3ccc(-c4cnc([C@@H]5CCCN5C(C)=O)[nH]4)cc3)cc2)[nH]1)c1ccccc1 [Example 31, methyl ((1R)-2-((2S)-2-(5-(4′-(2-((2S)-1-acetyl-2-pyrrolidinyl)-1H-imidazol-5-yl)-4-biphenylyl)-1H-imidazol-2-yl)-1-pyrrolidinyl)-2-oxo-1-phenylethyl)carbamate]	0.001 to 0.999
COC(=O)N[C@@H](C(=O)N1[C@@H]2C[C@@H]2C[C@H]1c1nc(-c2ccc(-c3ccc(-c4c[nH]c([C@@H]5C[C@H]6C[C@H]6N5C(=O)[C@H](NC(=O)OC)C(C)C)n4)cc3)cc2)c[nH]1)C(C)C [Example M136, methyl ((1R)-1-(((1R,3S,5R)-3-(4-(4′-(2-((1R,3S,5R)-2-((2R)-2-((methoxycarbonyl)amino)-3-methylbutanoyl)-2-azabicyclo[3.1.0]hex-3-yl)-1H-imidazol-4-yl)-4-biphenylyl)-1H-imidazol-2-yl)-2-azabicyclo[3.1.0]hex-2-yl)carbonyl)-2-methylpropyl)carbamate]	1 to 99
CC[C@H](C(=O)N1CCC[C@H]1c1ncc(-c2ccc(-c3ccc(-c4cnc([C@@H]5CCCN5C(=O)[C@@H](NC(=O)OC)C(C)C)[nH]4)cc3)cc2)[nH]1)N(CC)CC [Example M85, methyl ((1S)-1-(((2S)-2-(5-(4′-(2-((2S)-1-((2R)-2-(diethylamino)butanoyl)-2-pyrrolidinyl)-1H-imidazol-5-yl)-4-biphenylyl)-1H-imidazol-2-yl)-1-pyrrolidinyl)carbonyl)-2-methylpropyl)carbamate]	1 to 99
COC(=O)N[C@@H](C(=O)N1CCC[C@H]1c1ncc(-c2ccc(-c3ccc(-c4cnc([C@@H]5CCCN5C(=O)C(c5ccc6sc(C)nc6c5)N(C)C)[nH]4)cc3)cc2)[nH]1)c1ccccc1 (stereo partly drawn) [Example 84-53, methyl ((1R)-2-((2S)-2-(5-(4′-(2-((2S)-1-((dimethylamino)(2-methyl-1,3-benzothiazol-5-yl)acetyl)-2-pyrrolidinyl)-1H-imidazol-5-yl)-4-biphenylyl)-1H-imidazol-2-yl)-1-pyrrolidinyl)-2-oxo-1-phenylethyl)carbamate]	0.001 to 0.999
CN(C)[C@@H](C(=O)N1CCC[C@H]1c1ncc(-c2ccc(-c3ccc(-c4cnc([C@@H]5CCCN5C(=O)c5ccccc5F)[nH]4)cc3)cc2)[nH]1)c1ccccc1 [Example 94-38, (1R)-2-((2S)-2-(5-(4′-(2-((2S)-1-(2-fluorobenzoyl)-2-pyrrolidinyl)-1H-imidazol-5-yl)-4-biphenylyl)-1H-imidazol-2-yl)-1-pyrrolidinyl)-N,N-dimethyl-2-oxo-1-phenylethanamine]	0.001 to 0.999
CN1CCC(C(=O)N[C@@H](C(=O)N2CCC[C@H]2c2ncc(-c3ccc(-c4ccc(-c5cnc([C@@H]6CCCN6C(=O)[C@@H]6CCCO6)[nH]5)cc4)cc3)[nH]2)c2ccccc2)CC1 [Example 114, 1-methyl-N-((1R)-2-oxo-1-phenyl-2-((2S)-2-(5-(4′-(2-((2S)-1-((2S)-tetrahydro-2-furanylcarbonyl)-2-pyrrolidinyl)-1H-imidazol-5-yl)-4-biphenylyl)-1H-imidazol-2-yl)-1-pyrrolidinyl)ethyl)-4-piperidinecarboxamide]	0.001 to 0.999
COC(=O)N[C@H](C(=O)N1CCC[C@H]1c1ncc(-c2ccc(-c3ccc(-c4cnc([C@@H]5CCCN5C(=O)[C@H](Nc5ncccn5)C(C)C)[nH]4)cc3)cc2)[nH]1)C(C)C [cj-11i, methyl ((1S)-2-methyl-1-(((2S)-2-(5-(4′-(2-((2S)-1-(N-2-pyrimidinyl-D-valyl)-2-pyrrolidinyl)-1H-imidazol-5-yl)-4-biphenylyl)-1H-imidazol-2-yl)-1-pyrrolidinyl)carbonyl)propyl)carbamate]	0.001 to 0.999
COC(=O)N[C@@H](C)C(=O)N1CCC[C@H]1c1ncc(-c2ccc(-c3ccc(-c4cnc([C@@H]5CCCN5C(=O)[C@@H](NC(=O)OC)C(C)C)[nH]4)c(F)c3)cc2F)[nH]1 [Example D57, methyl ((1S)-1-(((2S)-2-(5-(3,3′-difluoro-4′-(2-((2S)-1-(N-(methoxycarbonyl)-L-alanyl)-2-pyrrolidinyl)-1H-imidazol-5-yl)-4-biphenylyl)-1H-imidazol-2-yl)-1-pyrrolidinyl)carbonyl)-2-methylpropyl) carbamate]	0.001 to 0.999
COC(=O)N[C@@H](CC(=O)O)C(=O)N1CCC[C@H]1c1ncc(-c2ccc(-c3ccc(-c4cnc([C@@H]5CCCN5C(=O)[C@@H](NC(=O)OC)C(C)C)[nH]4)cc3)cc2)[nH]1 [Example M111, (3S)-3-((methoxycarbonyl)amino)-4-((2S)-2-(5-(4′-(2-((2S)-1-(N-(methoxycarbonyl)-L-valyl)-2-pyrrolidinyl)-1H-imidazol-5-yl)-4-biphenylyl)-1H-imidazol-2-yl)-1-pyrrolidinyl)-4-oxobutanoic acid]	1000 to 10000
CCN(CC)[C@@H](C)C(=O)N1CCC[C@H]1c1ncc(-c2ccc(-c3ccc(-c4cnc([C@@H]5CCCN5C(=O)[C@@H](c5ccccc5)N(CC)CC)[nH]4)cc3)cc2)[nH]1 [Example M36, (2S)-1-((2S)-2-(5-(4′-(2-((2S)-1-((2R)-2-(diethylamino)-2-phenylacetyl)-2-pyrrolidinyl)-1H-imidazol-5-yl)-4-biphenylyl)-1H-imidazol-2-yl)-1-pyrrolidinyl)-N,N-diethyl-1-oxo-2-propanamine]	1 to 99
COC(=O)N[C@@H](C(=O)N1CSC[C@H]1c1ncc(-c2ccc(-c3ccc(-c4cnc([C@@H]5CSCN5C(=O)[C@H](NC(=O)OC)c5ccccc5)[nH]4)cc3)cc2)[nH]1)c1ccccc1 [Example 149, dimethyl (4,4′-biphenyldiylbis(1H-imidazole-5,2-diyl(4R)-1,3-thiazolidine-4,3-diyl((1R)-2-oxo-1-phenyl-2,1-ethanediyl)))biscarbamate]	0.001 to 0.999
CN(CC(=O)N1CCC[C@H]1c1ncc(-c2ccc(-c3ccc(-c4cnc([C@@H]5CCCN5C(=O)CN(C)Cc5ccccc5)[nH]4)cc3)cc2)[nH]1)Cc1ccccc1 [Example 24-4e, 2,2′-(4,4′-biphenyldiylbis(1H-imidazole-5,2-diyl(2S)-2,1-pyrrolidinediyl))bis(N-benzyl-N-methyl-2-oxoethanamine)]	1 to 99
CNC(=O)c1nc([C@@H]2CCCN2C(=O)[C@H](C)NC(=O)OC)[nH]c1-c1ccc(-c2ccc(-c3cnc([C@@H]4CCCN4C(=O)[C@@H](C)NC(=O)OC)[nH]3)cc2)cc1 [Example J28, methyl ((1S)-2-((2S)-2-(5-(4′-(2-((2S)-1-(N-(methoxycarbonyl)-L-alanyl)-2-pyrrolidinyl)-4-(methylcarbamoyl)-1H-imidazol-5-yl)-4-biphenylyl)-1H-imidazol-2-yl)-l-pyrrolidinyl)-l-methyl-2-oxoethyl)carbamate]	1 to 99

Reference: patent US8574563B2 (Bristol-Myers Squibb Company, priority 2006, dated 2013)
